According to US20240391923A1, “METHIONINE ADENOSYLTRANSFERASE 2A INHIBITOR FOR TREATING MTAP DELETION-TYPE CANCER” (SUZHOU GENHOUSE BIO CO., LTD., priority 2022, published 2024):

Columns and labels:
[1] = target: T1, PXR (Homo sapiens, UniProt O75469); test: PXR activation test in stably transfected DPX2 cells; format: cell-based; conditions: for activation activity on PXR at 30 μM (in words): summary of Table 10; for PXR activation fold (10 μM) / PXR activation fold (30 μM): DPX2 cells, 48 h
T1 construct: host or cells: DPX2 cells
T1 sequence (O75469 1-434): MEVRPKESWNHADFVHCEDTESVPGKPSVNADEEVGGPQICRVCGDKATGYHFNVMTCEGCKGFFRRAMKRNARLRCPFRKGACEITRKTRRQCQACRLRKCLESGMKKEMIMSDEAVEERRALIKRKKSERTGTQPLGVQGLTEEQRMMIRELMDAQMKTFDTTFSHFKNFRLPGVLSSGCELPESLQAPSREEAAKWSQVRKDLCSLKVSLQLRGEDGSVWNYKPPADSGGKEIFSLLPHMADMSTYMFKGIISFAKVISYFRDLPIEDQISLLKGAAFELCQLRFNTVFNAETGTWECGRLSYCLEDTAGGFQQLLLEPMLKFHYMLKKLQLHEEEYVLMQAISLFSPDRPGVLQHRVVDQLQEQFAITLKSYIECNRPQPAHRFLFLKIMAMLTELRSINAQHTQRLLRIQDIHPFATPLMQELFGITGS
Procedure: In this example, the compound was tested for PXR activation.
100 μL of stably transfected DPX2 cells were seeded per well of a 96-well cell culture plate (4.5×10^5 cells/mL in Puracyp medium), followed by placing the 96-well plate in a 37° C. incubator. After 24 h, the 96-well plate was taken out from the incubator, the medium was replaced with 100 μL of the test compound (at a final concentration of 10 μM and 30 μM), positive control compound rifampicin (at a final concentration of 10 μM), and the DMSO treatment group (at a final concentration of 0.1%), and 3 replicate wells were set. The test plate was placed back into the incubator. After 24 h, the medium was replaced with the freshly prepared test compound and rifampicin solution, and the test plate was again placed back into the incubator. After the compound was treated for 48 h, the test plate was taken out from the incubator. The medium in the wells was discarded, the plate was washed twice with PBS, 50 μL of medium containing 1×CellTiter-Fluor™ Cell Viability Assay reagent was added, and the mixture was incubated at 37° C. for 30 min. The test plate was taken out and equilibrated to room temperature, and the fluorescence signal under the conditions of 400 nm excitation light/505 nm emission light was detected by a microplate reader.
Subsequently, 50 μL of medium containing ONE-Glo Assay reagent was added to each well, and the plate was shaken, mixed well, and incubated at room temperature for 5 min. Chemiluminescence was detected by a microplate reader. The data was analyzed to evaluate the PXR activation of the test compound.

[2] = tested on: Human pancreatic cancer cells KP-4; test: Mouse xenograft tumor pharmacodynamic model, KP-4; format: in vivo; conditions: KP-4 xenograft, 29 days of administration
Procedure: In this example, the in vivo efficacy of the compound in a mouse xenograft tumor model after intragastric (PO) administration was tested.
Human pancreatic cancer cells KP-4 were cultured in monolayer in vitro under the condition of 1640 medium containing […] and […] and streptomycin, and the culture was carried out at 37° C. with 5% CO2. The cells were digested with trypsin three times a week for passaging. When the saturation degree of the cells was 80-90%, the cells were collected, counted and inoculated. 0.1 mL (5×10^6 cells) of KP-4 cells were subcutaneously inoculated on the right back of each mouse. On day 34 after inoculation of the cells, the mean tumor volume reached 154 mm^3. The mice were randomly grouped for administration and intragastrically dosed once daily. Changes in body weight and tumor volume were recorded. After 29 days of administration, the experiment was ended. Tumor volume changes and mouse body weight changes were counted and analyzed. AG270 (CAS: 2201056-66-6) was the positive control compound.

[3] = Metabolic stability test in hepatocytes, human; format: in vitro ADME; conditions: hepatocytes (suspension), Table 5: metabolic stability in hepatocytes, up to 90 min, read-out: Metabolic half-life in human liver microsome (T½, min)
Procedure: This experimental example was used to test the metabolic stability of the compounds in hepatocytes.
A suspension of hepatocytes was prepared at 0.5×10^6/mL with a pre-heated medium, then 198 μL of the pre-heated cell suspension was added to a 96-well plate. To each well of the 96-well plate, 2 μL of the test compound was added so that the final concentration was 1 μM, and 2 replicate wells were set. For the T=0 min sample, the compound was mixed well with the cells for 1 min, then […] was immediately added to 125 μL of a stop solution (an acetonitrile solution containing 200 ng/mL tolbutamide and 200 ng/mL labetalol) under an ice bath and mixed well. At the same time, all the plates were placed in an incubator at 37° C. with 5% CO2, with the shaker set at 600 rpm. The sample was mixed well at 15, 30, 60, and 90 min of incubation, respectively, and 25 μL of the sample was added to 125 μL of a stop solution (an acetonitrile solution containing 200 ng/mL tolbutamide and 200 ng/mL labetalol) under an ice bath, mixed well, and shaken at 500 rpm for 10 min. Subsequently, the plate was centrifuged for 20 min at 3220×g at 4° C. […] Subsequently, analysis was carried out using LC-MS/MS, and intrinsic clearance (CLint) and half-life (T½) were calculated.

| Structure (SMILES) | activation activity on PXR at 30 μM (in words) [1] | PXR activation fold (10 μM) [1] [fold] | PXR activation fold (30 μM) [1] [fold] | Tumor growth inhibition percentage (TGI) ([2]; PO 0.3 mg/kg once a day) | Tumor growth inhibition percentage (TGI) ([2]; PO 1 mg/kg once a day) | Tumor growth inhibition percentage (TGI) ([2]; PO 3 mg/kg once a day) | half-life at 1 μM [3] [min] |
| --- | --- | --- | --- | --- | --- | --- | --- |
| Cn1cc2c(n1)c(=O)n(-c1cccc3[nH]ncc13)c1cc(Cl)c(F)cc21 [Compound B257] | very weak | 3.37 | 7.87 | once a day TGI = 66.25% | once a day TGI = 90.06% | once a day TGI = 97.08% |  |
| Cn1cc2c(n1)c(=O)n(-c1cccnc1C1CC1)c1cc(Cl)c(F)cc21 [Compound B340] |  |  |  |  |  |  | > 217 |
| Cn1cc2c(n1)c(=O)n(-c1cccc3[nH]ncc13)c1cc(Cl)ccc21 [Compound B60] |  | 7.06 | 21.71 |  |  |  |  |
| O=c1c2n[nH]cc2c2ccc(C(F)(F)F)nc2n1-c1cccnc1 [Compound B178] |  | 7.47 | 34.49 |  |  |  |  |
| Cn1cc2c(n1)c(=O)n(-c1cccc3[nH]ncc13)c1nc(C(F)(F)F)ccc21 [Compound B181] | very weak | 3.63 | 3.77 |  |  |  | > 217 |
